Tests used:
Assay in all cases: relative viability (nuclei count vs DMSO), 5 days (fraction); higher = more cells survive
[1] = tested on: ABC-1
Outline: (§1)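 A single step with final 0.05% Triton X-100, 1% formaldehyde and 1 ug/ml Hoechst fixed the cells and stained nuclei 5 days after treatment. Lung cancer cell lines in 1536-well plates had been treated by pin tool the day after seeding with one drug alone or a fixed anchor-drug dose plus five library-drug doses (not always all listed) in √10 steps, and nuclei were counted on 4× images. Relative viability is the ratio of nuclei in treated wells to nuclei in vehicle wells, taken as the median of duplicate plates.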

[2] = tested on: CAL-12T
Outline: as §1

[3] = tested on: COR-L23
Outline: as §1

[4] = tested on: EKVX
Outline: as §1

[5] = tested on: H3255
Outline: as §1

[6] = tested on: HCC-15
Outline: as §1

[7] = tested on: HCC-827
Outline: as §1

[8] = tested on: LK-2
Outline: as §1

[9] = tested on: NCI-H1355
Outline: as §1

[10] = tested on: NCI-H1437
Outline: as §1

[11] = tested on: NCI-H1563
Outline: as §1

[12] = tested on: NCI-H1650
Outline: as §1

[13] = tested on: NCI-H1651
Outline: as §1

[14] = tested on: NCI-H1734
Outline: as §1

[15] = tested on: NCI-H2228
Outline: as §1

[16] = tested on: NCI-H2405
Outline: as §1

[17] = tested on: NCI-H322M
Outline: as §1

[18] = tested on: NCI-H520
Outline: as §1

[19] = tested on: NCI-H661
Outline: as §1

[20] = tested on: PC-14
Outline: as §1

[21] = tested on: PC-3 [JPC-3]
Outline: as §1

[22] = tested on: RERF-LC-KJ
Outline: as §1

[23] = tested on: SK-MES-1
Outline: as §1

[24] = tested on: SW 1573
Outline: as §1

**Q.** Which results are given for C[C@@H]1CN(CC(=O)Nc2ccc3c(c2)Cc2cccc(-c4cc(=O)cc(N5CCOCC5)o4)c2S3)C[C@H](C)O1 + CS(=O)(=O)N1CCN(Cc2cc3nc(-c4cccc5[nH]ncc45)nc(N4CCOCC4)c3s2)CC1 [Pictilisib] (partner 1 µM)?
**A.** relative viability ([1]; first compound 0.1265 µM): 0.69; relative viability ([1]; first compound 0.4 µM): 0.636; relative viability ([1]; first compound 4 µM): 0.854; relative viability ([2]; first compound 0.04 µM): 0.396; relative viability ([2]; first compound 0.1265 µM): 0.487; relative viability ([2]; first compound 0.4 µM): 0.396; relative viability ([2]; first compound 4 µM): 0.378; relative viability ([3]; first compound 0.04 µM): 0.854; relative viability ([3]; first compound 0.1265 µM): 0.785; relative viability ([3]; first compound 0.4 µM): 0.745; relative viability ([3]; first compound 4 µM): 0.755; relative viability ([4]; first compound 0.04 µM): 0.412; relative viability ([4]; first compound 0.1265 µM): 0.444; relative viability ([4]; first compound 0.4 µM): 0.414; relative viability ([4]; first compound 4 µM): 0.428; relative viability ([5]; first compound 0.04 µM): 0.483; relative viability ([5]; first compound 0.1265 µM): 0.535; relative viability ([5]; first compound 0.4 µM): 0.452; relative viability ([5]; first compound 4 µM): 0.446; relative viability ([6]; first compound 0.04 µM): 0.815; relative viability ([6]; first compound 0.1265 µM): 0.649; relative viability ([6]; first compound 0.4 µM): 0.796; relative viability ([6]; first compound 4 µM): 0.636; relative viability ([7]; first compound 0.04 µM): 0.987; relative viability ([7]; first compound 0.1265 µM): 1.03; relative viability ([7]; first compound 0.4 µM): 1.22; relative viability ([7]; first compound 4 µM): 0.995; relative viability ([8]; first compound 0.1265 µM): 0.634; relative viability ([8]; first compound 0.4 µM): 0.607; relative viability ([8]; first compound 4 µM): 0.667; relative viability ([9]; first compound 0.04 µM): 0.229; relative viability ([9]; first compound 0.1265 µM): 0.43; relative viability ([9]; first compound 0.4 µM): 0.418; relative viability ([9]; first compound 4 µM): 0.331; relative viability ([10]; first compound 0.04 µM): 0.416; relative viability ([10]; first compound 0.1265 µM): 0.45; relative viability ([10]; first compound 0.4 µM): 0.339; relative viability ([10]; first compound 4 µM): 0.477; relative viability ([11]; first compound 0.04 µM): 0.616; relative viability ([11]; first compound 0.1265 µM): 0.661; relative viability ([11]; first compound 0.4 µM): 0.702; relative viability ([11]; first compound 4 µM): 0.711; relative viability ([12]; first compound 0.04 µM): 0.32; relative viability ([12]; first compound 0.1265 µM): 0.605; relative viability ([12]; first compound 0.4 µM): 0.651; relative viability ([12]; first compound 4 µM): 0.621; relative viability ([13]; first compound 0.04 µM): 0.59; relative viability ([13]; first compound 0.1265 µM): 0.491; relative viability ([13]; first compound 0.4 µM): 0.612; relative viability ([13]; first compound 4 µM): 0.568; relative viability ([14]; first compound 0.04 µM): 0.526; relative viability ([14]; first compound 0.1265 µM): 0.489; relative viability ([14]; first compound 0.4 µM): 0.468; relative viability ([14]; first compound 4 µM): 0.487; relative viability ([15]; first compound 0.04 µM): 0.355; relative viability ([15]; first compound 0.1265 µM): 0.256; relative viability ([15]; first compound 0.4 µM): 0.372; relative viability ([15]; first compound 4 µM): 0.472; relative viability ([16]; first compound 0.04 µM): 0.414; relative viability ([16]; first compound 0.1265 µM): 0.461; relative viability ([16]; first compound 0.4 µM): 0.358; relative viability ([16]; first compound 4 µM): 0.406; relative viability ([17]; first compound 0.04 µM): 0.365; relative viability ([17]; first compound 0.1265 µM): 0.506; relative viability ([17]; first compound 0.4 µM): 0.452; relative viability ([17]; first compound 4 µM): 0.565; relative viability ([18]; first compound 0.04 µM): 0.329; relative viability ([18]; first compound 0.1265 µM): 0.281; relative viability ([18]; first compound 0.4 µM): 0.31; relative viability ([18]; first compound 4 µM): 0.374; relative viability ([19]; first compound 0.04 µM): 0.408; relative viability ([19]; first compound 0.1265 µM): 0.381; relative viability ([19]; first compound 0.4 µM): 0.381; relative viability ([19]; first compound 4 µM): 0.448; relative viability ([20]; first compound 0.04 µM): 0.685; relative viability ([20]; first compound 0.1265 µM): 0.629; relative viability ([20]; first compound 0.4 µM): 0.687; relative viability ([20]; first compound 4 µM): 0.588; relative viability ([21]; first compound 0.04 µM): 0.714; relative viability ([21]; first compound 0.1265 µM): 0.724; relative viability ([21]; first compound 0.4 µM): 0.801; relative viability ([21]; first compound 4 µM): 0.669; relative viability ([22]; first compound 0.04 µM): 0.591; relative viability ([22]; first compound 0.1265 µM): 0.531; relative viability ([22]; first compound 0.4 µM): 0.523; relative viability ([22]; first compound 4 µM): 0.487; relative viability ([23]; first compound 0.04 µM): 0.381; relative viability ([23]; first compound 0.1265 µM): 0.377; relative viability ([23]; first compound 0.4 µM): 0.356; relative viability ([23]; first compound 4 µM): 0.355; relative viability ([24]; first compound 0.04 µM): 0.536; relative viability ([24]; first compound 0.1265 µM): 0.531; relative viability ([24]; first compound 0.4 µM): 0.489; relative viability ([24]; first compound 4 µM): 0.486
